Experimental data reported in PMC7501296, “Rapid and direct control of target protein levels with VHL-recruiting dTAG molecules” (Nature Communications, 2020).
Several values for one entry are separate records, joined by “and”; a condition that tells them apart may be missing. Identical values can stand only once.

What was measured:
FKBP12^F36V-KRAS^G12V = target: T1, FKBP12^F36V-KRAS^G12V (Homo sapiens, UniProt P01116+P62942, F37V/G12V); assay: Immunoblot of PATU-8902 FKBP12F36V-KRASG12V; KRAS-/- clone; assay type: cell-based; settings: time-course
T1 construct: KRAS G12V (fusion partner, same polypeptide); expressed in transfected cells
T1 sequence (P62942+P01116 fused P62942:F37V/P01116:G12V): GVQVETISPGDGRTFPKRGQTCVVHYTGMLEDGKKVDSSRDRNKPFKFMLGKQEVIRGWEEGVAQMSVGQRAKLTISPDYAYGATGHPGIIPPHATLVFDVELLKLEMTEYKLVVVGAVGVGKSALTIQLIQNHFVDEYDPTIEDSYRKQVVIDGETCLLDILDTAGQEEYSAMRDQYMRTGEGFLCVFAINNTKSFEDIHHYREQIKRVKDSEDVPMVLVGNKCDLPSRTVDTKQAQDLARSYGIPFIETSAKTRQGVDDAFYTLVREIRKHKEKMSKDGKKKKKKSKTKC
Method: PATU-8902 LACZ-FKBP12^F36V and FKBP12^F36V-KRAS^G12V; KRAS^−/− cells and 293T cells were lysed with RIPA buffer supplemented with cOmplete protease inhibitors (Roche), PhosSTOP phosphatase inhibitors (Roche), and 0.1% benzonase (Novagen). Proteins were separated using NuPAGE Bolt^TM Bis–Tris gels (Thermo Fisher Scientific) and transferred to nitrocellulose membranes, which were blocked with Odyssey Blocking Buffer (LI-COR) and incubated with primary antibodies overnight. Membranes were washed three times with TBS-T, incubated with the appropriate fluorescently labeled infrared secondary antibodies, washed again three times with TBS-T, and assessed using an Odyssey CLx Imager (LI-COR)[6],[15]. EWS502 cells were lysed with Cell Lysis Buffer (Cell Signaling Technology) supplemented with cOmplete protease inhibitors (Roche). Proteins were separated using SDS-PAGE gels and transferred to PVDF membranes, which were blocked with 5% milk in TBS-T and incubated with primary antibodies overnight. Membranes were washed five times with TBS-T, incubated with the appropriate horseradish peroxidase-conjugated secondary antibodies, washed again five times with TBS-T, and imaged. The following primary antibodies were employed in this study: HA (Cell Signaling Technology #3724 and #2367, dilution at 1:1000), phospho-ERK1/2 T202/Y204 (Cell Signaling Technology #4370, dilution at 1:1000), ERK1/2 (Cell Signaling Technology #4696, dilution at 1:1000), phospho-AKT S473 (Cell Signaling Technology #4060, dilution at 1:1000), AKT (Cell Signaling Technology #2920, dilution at 1:1000), FKBP12 (Abcam #ab24373, dilution at 1:1000), GFP (Cell Signaling Technology #2555, dilution at 1:1000), FLI (Abcam #ab15289, dilution at 1:2000), NKX2-2 (Abcam #ab187375, dilution at 1:1000), GAPDH (Cell Signaling Technology #2118, dilution at 1:3000), Vinculin (Cell Signaling Technology #13901, dilution at 1:3000), β-Actin (Cell Signaling Technology #58169, dilution at 1:3000), and α-Tubulin (Cell Signaling Technology #3873, dilution at 1:5000). Species-specific fluorescently labeled infrared secondary antibodies including IRDye 680LT anti-Mouse IgG (LI-COR #926-68020, dilution at 1:5000), IRDye 800CW anti-Mouse IgG (LI-COR #926-32210, dilution at 1:5000), IRDye 680LT anti-Rabbit IgG (LI-COR #926-68021, dilution at 1:5000), and IRDye 800CW anti-Rabbit IgG (LI-COR #926-32211, dilution at 1:5000) and peroxidase-linked secondary antibodies including anti-Mouse IgG (Thermo Fisher Scientific #45000680, dilution at 1:5000) and anti-Rabbit IgG (Thermo Fisher Scientific #45000682, dilution at 1:5000) were employed as appropriate.

luciferase-FKBP12^F36V = target: T2, luciferase-FKBP12^F36V (Homo sapiens, UniProt P62942, F37V); assay: Pharmacodynamic evaluation: bioluminescence of MV4;11 luc-FKBP12F36V cells in mice; assay type: in vivo, mice (NSG); design: Total flux for each mouse: unit not given here; settings: for Total flux for each mouse: single mice
T2 construct: luciferase (fusion partner); expressed in transfected cells; host or cells: MV4;11 cells transplanted into NSG mice
T2 sequence (P62942 2-108 F37V limits assumed): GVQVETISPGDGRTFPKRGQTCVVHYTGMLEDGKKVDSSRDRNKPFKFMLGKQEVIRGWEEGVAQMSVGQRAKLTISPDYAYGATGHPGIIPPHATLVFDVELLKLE
Excerpt: For IP injections, dTAG-13 and dTAG^V-1 were formulated by dissolving into DMSO and then diluting with 20% solutol (Sigma): 0.9% sterile saline (Moltox) (w:v) with the final formulation containing 5% DMSO. […] Formulations were stable at room temperature for 7 days. For IV injections, dTAG-13 and dTAG^V-1 were formulated by dissolving into DMSO and then diluting with 5% solutol (Sigma): 0.9% sterile saline (Moltox) (w:v) with the final formulation containing 5% DMSO.
All procedures for PD studies were compliant with ethical regulations for animal testing and research, and were approved by and performed in accordance with standards of the IACUC at Dana–Farber Cancer Institute. Housing conditions for mice at Dana–Farber Cancer Institute were as follows: lights on = 6 AM, lights off = 6 PM, average ambient temperature = 72 °F, and average humidity = 35–55%. Evaluation of degradation of luciferase in vivo was performed using MV4;11 luc-FKBP12^F36V cells and bioluminescent measurements[6],[48]. In brief, 250,000 viable MV4;11 luc-FKBP12^F36V cells were transplanted by tail-vein injection in 8-week-old immunocompromised female mice (NOD.Cg-Prkdc^scidIl2rg^tm1Wjl/SzJ, NSG; Jackson Laboratory, #005557). Bioluminescent measurements were performed following IP injection of 75 mg kg^−1 D-Luciferin (Promega). Mice were then anesthetized with 2−3% isoflurane, imaged on an IVIS Spectrum (Caliper Life Sciences), and total body bioluminescence was determined using a standardized region of interest. Two and seven days after tail-vein injection, bioluminescent measurements were performed to confirm engraftment. […] For treatments, compounds were formulated as described above, administered via IP injection and bioluminescent measurements were performed daily as described in Fig. 2d, beginning 8 days after tail-vein injection.

[1] = Baseline (day 0, before treatment), MV4;11 luc-FKBP12F36V
[2] = No treatment (day 4), 28 h after third and final treatment
[3] = Treatment #1 (day 1), 4 h after 35 mg kg^−1 IP
[4] = Treatment #2 (day 2), 4 h after 35 mg kg^−1 IP
[5] = Treatment #3 (day 3), 4 h after 35 mg kg^−1 IP

Row | Structure (SMILES) | KRASG12V degradation, immunoblot (FKBP12^F36V-KRAS^G12V) | Bioluminescent signal 4 h after each of the three administrations (luciferase-FKBP12^F36V; 35 mg kg^−1 IP) | Bioluminescent signal 4 h after the first administration (luciferase-FKBP12^F36V; 35 mg kg^−1 IP) | Duration of degradation (luciferase-FKBP12^F36V; 35 mg kg^−1 IP, after the final administration) | Total flux for each mouse (luciferase-FKBP12^F36V; [1]) | Total flux for each mouse (luciferase-FKBP12^F36V; [2]) | Total flux for each mouse (luciferase-FKBP12^F36V; [3]) | Total flux for each mouse (luciferase-FKBP12^F36V; [4]) | Total flux for each mouse (luciferase-FKBP12^F36V; [5])
1 | CC[C@H](C(=O)N1CCCC[C@H]1C(=O)O[C@H](CCc1ccc(OC)c(OC)c1)c1ccccc1OCC(=O)NCCCCCCC(=O)N[C@H](C(=O)N1C[C@H](O)C[C@H]1C(=O)N[C@@H](C)c1ccc(-c2scnc2C)cc1)C(C)(C)C)c1cc(OC)c(OC)c(OC)c1 [dTAG^V-1] | rapid KRAS^G12V degradation | Consistent loss of bioluminescent signal | Striking loss of bioluminescent signal | degradation evident 28 h after the final administration | 1893000 and 1330000 and 3116000 and 1809000 and 3338000 | 601200 and 13590000 and 24710000 and 1755000 and 24650000 | 4041000 and 2159000 and 3736000 and 2539000 and 5912000 | 3135000 and 1001000 and 2876000 and 2693000 and 9211000 | 4741000 and 1924000 and 4372000 and 3069000 and 6943000
2 | CC[C@H](C(=O)N1CCCC[C@H]1C(=O)O[C@H](CCc1ccc(OC)c(OC)c1)c1ccccc1OCC(=O)NCCCCCCOc1cccc2c1C(=O)N(C1CCC(=O)NC1=O)C2=O)c1cc(OC)c(OC)c(OC)c1 (stereo partly shown) [dTAG-13] | – | Consistent loss of bioluminescent signal | – | – | 4289000 and 889100 and 3230000 and 316100 and 985400 | 49160000 and 34070000 and 76150000 and 45320000 | 6613000 and 7583000 and 6309000 and 11170000 and 4709000 | 5587000 and 3752000 and 2682000 and 8076000 and 3987000 | 7807000 and 6324000 and 1630000 and 11780000 and 6875000
3 | CCC(C(=O)N1CCCCC1C(=O)OC(CCc1ccc(OC)c(OC)c1)c1ccccc1OCC(=O)NCCCCCCC(=O)NC(C(=O)N1CC(O)CC1C(=O)NC(C)c1ccc(-c2scnc2C)cc1)C(C)(C)C)c1cc(OC)c(OC)c(OC)c1 (stereo not shown) [dTAG^V-1-NEG] | not induced | – | – | – | – | – | – | – | –
